Assay results published in patent publication US20140378408A1, “NUCLEOSIDE 5'-PHOSPHOROTHIOATE ANALOGUES AND USES THEREOF” (BAR-ILAN UNIVERSITY, an Israeli University, priority 2012, published 2014).
Like-named read-outs stand apart in the source and are kept apart here.

How the values were obtained:
[1] = biological target: T1, human NPP3 (Homo sapiens, UniProt O14638); assay: Hydrolysis by human NPP3; assay type: in vitro ADME; settings: 100 μM, 1 h, compared to ATP
T1 construct: made in house; host or cells: COS-7 cells (transfected; protein extract / cell lysate)
T1 sequence (O14638 1-875): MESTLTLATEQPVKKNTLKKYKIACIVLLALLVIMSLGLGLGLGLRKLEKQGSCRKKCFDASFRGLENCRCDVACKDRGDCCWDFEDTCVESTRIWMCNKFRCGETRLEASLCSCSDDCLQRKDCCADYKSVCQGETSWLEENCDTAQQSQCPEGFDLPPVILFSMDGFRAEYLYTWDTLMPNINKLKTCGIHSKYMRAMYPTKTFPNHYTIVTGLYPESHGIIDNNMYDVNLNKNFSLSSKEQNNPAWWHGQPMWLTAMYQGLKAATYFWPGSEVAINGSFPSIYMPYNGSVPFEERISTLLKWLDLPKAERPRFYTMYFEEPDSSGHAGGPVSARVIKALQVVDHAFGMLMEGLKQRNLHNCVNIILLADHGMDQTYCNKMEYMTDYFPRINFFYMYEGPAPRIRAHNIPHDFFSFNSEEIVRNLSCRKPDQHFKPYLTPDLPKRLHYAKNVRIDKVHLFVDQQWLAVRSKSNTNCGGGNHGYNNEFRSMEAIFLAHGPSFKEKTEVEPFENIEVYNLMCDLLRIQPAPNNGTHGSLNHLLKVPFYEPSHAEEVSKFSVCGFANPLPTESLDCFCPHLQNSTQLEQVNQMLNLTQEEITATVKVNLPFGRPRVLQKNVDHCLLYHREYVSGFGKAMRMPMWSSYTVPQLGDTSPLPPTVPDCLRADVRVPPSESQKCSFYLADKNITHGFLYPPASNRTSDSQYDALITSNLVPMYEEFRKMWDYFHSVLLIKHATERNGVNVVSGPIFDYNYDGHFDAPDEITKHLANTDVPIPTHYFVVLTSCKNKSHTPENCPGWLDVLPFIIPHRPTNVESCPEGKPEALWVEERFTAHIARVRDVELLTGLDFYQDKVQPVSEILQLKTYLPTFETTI

[2] = ESR OH radical assay, Fe^2+/H2O2 Fenton system; settings: N/A = minimal radical production exceeds 10%
[3] = system: PC12 cells; assay: Inhibition of Fe(II)-induced ROS formation in PC12 cells (DCFH-DA); assay type: cell-based; settings: read-out: IC50 inhibition of ROS formation
Description: In this study, nucleoside 5′-phosphorothioate analogues were explored as inhibitors of Fe(II)-induced oxidative stress in PC12 cells used as a neuronal model. Reduction of ROS production in PC12 cells by each one of the tested analogues was measured by DCFH-DA, a radical sensitive indicator. After DCFH-DA was removed, the tested analogue was added to the cells at a final concentration of 0.2-200 μM. Oxidation was initiated by the addition of FeSO4 (0.16 μM) to the wells. The plates were incubated for 1 h at 37° C., during which the absorbance was read by a Tecan fluorometer at 485/530 nm.

[4] = system: cortical neurons; assay: Neuroprotection of cultured cortical neurons exposed to FeSO4 or FeSO4/H2O2; assay type: cell-based
[5] = biological target: T2, TNAP (Homo sapiens, UniProt P05186); assay: Hydrolysis by TNAP; assay type: in vitro ADME; settings: 1 h
T2 sequence (P05186 18-501): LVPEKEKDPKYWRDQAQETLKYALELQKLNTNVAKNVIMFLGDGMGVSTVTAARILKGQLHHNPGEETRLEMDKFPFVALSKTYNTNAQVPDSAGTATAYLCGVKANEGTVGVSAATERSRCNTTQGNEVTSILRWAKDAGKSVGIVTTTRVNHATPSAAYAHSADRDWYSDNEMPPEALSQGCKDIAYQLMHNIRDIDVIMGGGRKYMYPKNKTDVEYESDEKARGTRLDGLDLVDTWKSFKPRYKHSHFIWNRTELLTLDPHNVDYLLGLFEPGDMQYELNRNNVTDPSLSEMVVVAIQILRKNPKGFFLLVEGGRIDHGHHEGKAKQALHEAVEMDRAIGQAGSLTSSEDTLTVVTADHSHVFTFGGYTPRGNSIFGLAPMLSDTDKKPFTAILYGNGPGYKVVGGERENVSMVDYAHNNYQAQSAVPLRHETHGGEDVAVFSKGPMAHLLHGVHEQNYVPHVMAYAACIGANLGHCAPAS
From the text: The metabolic stability of APPCCl2P-α-S (isomer A) and APCPP-γ-S was further proven by their resistance to enzymatic hydrolysis by TNAP.

[6] = biological target: T2, TNAP; assay: Inhibition of TNAP; assay type: biochemical

Nc1ncnc2c1ncn2[C@@H]1O[C@H](COP(O)(=S)OP(=O)(O)CP(=O)(O)O)[C@@H](O)[C@H]1O (single isomer, unassigned; isomer a) [APPCP-α-S (isomer A), adenosine 5′-[Pα-thio]-β,γ-methylenetriphosphate]
Hydrolysis by NPP3 [1]: ~1%

Nc1ncnc2c1ncn2[C@@H]1O[C@H](COP(=O)(O)OP(O)(O)=S)[C@@H](O)[C@H]1O [ADP-β-S, adenosine 5′-[β-thio]diphosphate, reference compound]
IC90 [2]: 210 ± 1 µM
IC50 ([3]; PC12 cells, FeSO4 0.16 μM, 1 h, DCFH-DA): 26 µM
IC50 ([4]; Table 2, neuroprotection of primary neurons exposed to FeSO4, read-out: IC50): 1.2 ± 0.007 µM

Nc1ncnc2c1ncn2[C@@H]1O[C@H](COP(O)(=S)OP(=O)(O)CP(=O)(O)O)[C@@H](O)[C@H]1O (single isomer, unassigned; isomer b) [APPCP-α-S (isomer B), adenosine 5′-[Pα-thio]-β,γ-methylenetriphosphate]
Hydrolysis by NPP3 [1]: ~4%

Nc1ncnc2c1ncn2[C@@H]1O[C@H](COP(=O)(O)CP(=O)(O)OP(O)(O)=S)[C@@H](O)[C@H]1O [APCPP-γ-S, adenosine 5′-[Pγ-thio]-α,β-methylenetriphosphate]
IC90 [2]: 211 ± 7 µM
IC50 ([3]; Rattus norvegicus, PC-12, 1 h): 0.16 µM
IC50 ([4]; Cortical neurone, read-out: IC50 protection from damage caused by FeSO4): 0.04 µM
Hydrolysis by TNAP [5]: 2.5%
inhibition at 100 µM [6]: 8%

Nc1ncnc2c1ncn2[C@@H]1O[C@H](COP(O)(=S)OP(=O)(O)C(Cl)(Cl)P(=O)(O)O)[C@@H](O)[C@H]1O (single isomer, unassigned; isomer a) [APPCCl2P-α-S (isomer A), adenosine 5′-[Pα-thio]-β,γ-(dichloromethylene)triphosphate]
Hydrolysis by TNAP [5]: fully stable
inhibition of TNAP ([6]; 100 μM): 17%
